In patent US11241424B2, “Pharmaceutical formulations for sustained release of sebacoyl dinalbuphine ester” (LUMOSA THERAPEUTICS CO., LTD., priority 2015, dated 2022):
Where “and” joins values, the source holds several entries; their conditions need not be identical. Equal entries are not always repeated.

Experiments:
[1] = Solubility test of SDE in solvents and solvent systems (UPLC); type: physicochemical
Protocol: As used herein, the term “solubility” means the maximum amount of a solute (e.g., an active ingredient or a prodrug thereof) that can be dissolved in a given amount of a solvent at a particular temperature. Unless otherwise specified, the solubilities presented herein are at room temperature (e.g., 25-28° C.). The term “saturated concentration” refers to the concentration at which no more of a solute will dissolve in a solvent and additional amounts of solute will appear as a separate phase (e.g., as a precipitate).
Each of the solvent systems was prepared by mixing each component with the exact volume (pi) corresponding to the w/w % listed in Table 15. About 500 μl of each of the solvent systems was prepared and was vortexed for 3 minutes or more to fully mix each component. An appropriate amount of SDE was added into 250 μl of each of the solvent systems and the resulting mixtures were sonicated for 10 minutes. If the previously added SDE was completely dissolved, an additional 4-8 mg of SDE was added into the mixture and which was then sonicated for another 10 minutes. The step of adding 4-8 mg of SDE was repeated until the mixture was saturated to show undissolved SDE precipitates. All of the mixtures were sonicated for at least 30 minutes, and then centrifuged to collect the supernatants. The supernatants were treated with acetonitrile and then subjected to UPLC analysis.
Five groups of solvent systems containing 40% by weight of sesame oil were respectively prepared according to the method of Example 6 by using the compositions as listed in Table 17; and among them, five different alcohols (i.e., ethanol, 1-propanol, 2-propanol, 1-butanol, and tert-butanol) were used in the five groups. SDE was dissolved in each of the solvent systems till saturation by following the method of Example 6. The SDE concentrations in the supernatants collected from each of the samples (i.e. the saturated SDE concentration, or SDE solubility) were respectively determined by UPLC using the method of Example 6.

[2] = test system: postoperative pain following hemorrhoidectomy; assay: Phase 2/3 clinical study of F8 formulation; type: in vivo, human
Protocol: The subjects were divided into two groups, of which Group 1 (n=103) was treated with a single dose of intramuscular SDE 150 mg (2 mL), and Group 2 (n=106) was treated with a single dose of intramuscular placebo (2 mL). All subjects were given a single dose of SDE or placebo via intramuscular injection 24±12 hours before hemorrhoid surgery. The subjects were allowed to take rescue medication and monitored for 7 days after dosing. Statistical analyses were performed on the data to compare the two groups.
The primary efficacy endpoint was pain assessment calculated as the area under the curve of VAS pain intensity scores through 48 hours after surgery. The secondary efficacy endpoints included pain assessment measured with VAS; time from the end of operation to the first rescue medication dosing; the consumption of oral ketorolac. Pain intensity was assessed right before the first use of PCA ketorolac, and at 1±0.1, 2±0.1, 3±0.1, 4±0.25, 8±0.5, 12±0.5, 16±0.5, 20±0.5, 24±1, 28±1, 32±2, 36±2, 40±2, 44±2, 48±2 hours after the surgery, and was assessed during Days 3-7 in the morning and evening, as well as during special events such as bowel movements.
For the calculation of AUC, data were imputed with the use of the windowed worst observation carried forward plus last observation carried forward method. For subjects who used rescue medication for pain relief, their VAS scores recorded within the window of ketorolac medication (6 hours, which is one half-life of ketorolac) were replaced by the “worst” observation (i.e., the highest score before taking ketorolac), hereafter called “adjusted VAS scores.”
The AUC0-24 and AUC0-48 of the mean adjusted VAS scores of SDE and placebo groups were calculated by using the trapezoidal method and summarized in Table 10.

[3] = Phase I clinical trial of F8 formulation (safety, tolerability, pharmacokinetics); conditions: for AUC0-inf / AUC0-t / Cmax / T1/2 / Tmax: plasma nalbuphine, mean
Protocol: It was designed to evaluate safety and local tolerability and assess the pharmacokinetics of SDE following single dose intramuscular injection. The study enrolled a total of 28 healthy male subjects. All subjects were randomized to 5 cohorts. Cohort 1 (N=4) was treated with single dose Nubain® 17 mg (0.85 mL) via intramuscular injection. Cohorts 2-5 (N=6) were either treated with placebo (N=2) or treated with single dose SDE (N=4) at 75 mg (1 mL), 100 mg (1.33 mL), 125 mg (1.67 mL), and 150 mg (2 mL), respectively.
Heparinized blood samples were obtained before and at various time points following single dose administration of study medication. […] The subsequent analysis of the data involved non-compartmental pharmacokinetics analysis, i.e., Cmax, Tmax, AUC0-t, AUC0-inf, and T1/2.

[4] = Bioavailability study of F8 formulation and Bain (whole blood nalbuphine); type: in vivo, human; conditions: mean, SDE 150 mg single IM as F8 formulation
Protocol: A total of twelve subjects completed the crossover study. […] There was a minimum 5-day washout period between period I and period II. In period I, the blood samples were drawn prior to the dosing, and 0.083, 0.25, 0.5, 1, 1.5, 2, 3, 4, 6, 8, 12, and 24 hours after dosing.

[5] = after i.v. dosing in dogs; cited from earlier work
[6] = Plasma nalbuphine after subcutaneous nalbuphine in dogs; type: in vivo
[7] = 48 hours post-operation, SDE 150 mg IM (F8)
[8] = mITT, SDE 150 mg IM (F8) 24±12 hours before hemorrhoid surgery
[9] = SDE 75 mg single IM as F8 formulation
[10] = SDE 100 mg single IM as F8 formulation
[11] = SDE 125 mg single IM as F8 formulation
[12] = SDE 150 mg single IM as F8 formulation
[13] = dog, plasma, subcutaneous, 0.5 mg/kg

Compound: O=C(CCCCCCCCC(=O)Oc1ccc2c3c1O[C@H]1[C@@H](O)CC[C@@]4(O)[C@@H](C2)N(CC2CCC2)CC[C@]314)Oc1ccc2c3c1O[C@H]1[C@@H](O)CC[C@@]4(O)[C@@H](C2)N(CC2CCC2)CC[C@]314 [SDE, sebacoyl dinalbuphine ester]
- effect of C2-C4 alcohol on the solubility of SDE (FIG. 11) ([1]; 2.5-30% by weight of the alcohol in solvent system with 40% sesame oil): significantly increased
- solubility of SDE in the formulations ([1]; 10% by weight of tert-Butanol replacing benzyl benzoate): about 210 mg/mL
- increase of the solubility of SDE in the solvent systems ([1]; 10% of alkyl alcohol added): at least 30%
- Solubility of SDE in the solvent ([1]; castor oil): about 13 mg/mL
- Solubility of SDE in the solvent ([1]; cottonseed oil): about 6 mg/mL
- solubility of SDE in ethanol, 1-propanol, or t-butanol ([1]; each alcohol alone): 10 to 30 mg/mL
- solubility of SDE when added to the mixture of benzyl benzoate and sesame oil ([1]; weight ratio of benzyl benzoate to sesame oil about 1.1): about 70 mg/mL
- solubility of SDE when added to the mixture of benzyl benzoate and sesame oil ([1]; weight ratio of benzyl benzoate to sesame oil about 1.5): about 150 mg/mL
- solubility of SDE when added to the mixture of benzyl benzoate and sesame oil ([1]; weight ratio of benzyl benzoate to sesame oil about 2.3): about 200 mg/mL
- solubility of SDE when added to the mixture of benzyl benzoate and sesame oil ([1]; weight ratio of benzyl benzoate to sesame oil about 9): greater than 300 mg/mL
- solubility of SDE in the formulations ([1]; without alkyl alcohol): about 160 mg/mL
- AUC0-final of adjusted VAS scores, Mean ± SD ([2]; 0 hr to 7 days after hemorrhoid operation, mITT, SDE 150 mg IM (F8)): 630.79±350.90
- consumption of oral ketorolac, Mean [2, 7]: 51.36 mg
- consumption of oral ketorolac, Median [2, 7]: 40.00 mg
- time for the first use of post-operational analgesic, Mean (SD) ([2]; mITT, SDE 150 mg IM (F8)): 12.57 hour and 12.57 (1.68) hour
- AUC0-24 of adjusted VAS pain intensity scores, Mean ± SD [2, 8]: 109.42 ± 55.04
- AUC0-48 of adjusted VAS pain intensity scores, Mean ± SD [2, 8]: 209.93±111.26
- adjusted VAS score compared with placebo ([2]; throughout the 7 days after the hemorrhoid operation): lower than the placebo group
- duration of action ([3]; cohort receiving 125 mg SDE, from plasma nalbuphine above 3 ng/mL): about 6.5 days
- duration of action ([3]; cohort receiving 150 mg SDE, from plasma nalbuphine above 3 or 1 ng/mL): 6 to 12 days
- tolerability ([3]; escalating single IM doses of SDE up to 150 mg): well tolerated
- AUC0-inf [3, 9]: 692.27 ng·h/mL
- AUC0-t [3, 9]: 647.84 ng·h/mL
- Cmax [3, 9]: 5.45 ng/mL
- T1/2 [3, 9]: 55.75 h
- Tmax [3, 9]: 66 h
- AUC0-inf [3, 10]: 936.17 ng·h/mL
- AUC0-t [3, 10]: 811.34 ng·h/mL
- Cmax [3, 10]: 5.65 ng/mL
- T1/2 [3, 10]: 85.45 h
- Tmax [3, 10]: 66 h
- AUC0-inf [3, 11]: 1219.71 ng·h/mL
- AUC0-t [3, 11]: 1047.45 ng·h/mL
- Cmax [3, 11]: 7.31 ng/mL
- T1/2 [3, 11]: 89.83 h
- Tmax [3, 11]: 45 h
- AUC0-inf [3, 12]: 1353.16 ng·h/mL
- AUC0-t [3, 12]: 1214.98 ng·h/mL
- Cmax [3, 12]: 9.81 ng/mL
- T1/2 [3, 12]: 73.4 h
- Tmax [3, 12]: 60 h
- difference between SDE and placebo groups in number of AEs, subjects with AEs, severity and relatedness ([3]; single IM dose 75-150 mg): No significant difference
- severity of adverse events (AEs) ([3]; single IM dose, healthy male subjects): mild
- AUC0-inf [4]: 1832.0 ng·h/mL
- AUC0-t [4]: 1687.4 ng·h/mL
- Cmax [4]: 15.40 ng/mL
- MRT [4]: 149.38 h
- T1/2 [4]: 83.16 h
- Tmax [4]: 64.00 h

Compound: Oc1ccc2c3c1O[C@H]1[C@@H](O)CC[C@@]4(O)[C@@H](C2)N(CC2CCC2)CC[C@]314 [nalbuphine]
- elimination half-life of nalbuphine [5]: about 1.2 hour
- concentration at 3 h [6, 13]: 9.9 ng/mL
- concentration at 4 h [6, 13]: 5.2 ng/mL
- effective plasma concentration of nalbuphine for analgesia in dog ([6]; inferred from 4 h plasma level and reported 4 h analgesia): about 5 ng/mL
